Earlier results as cited in the CATMoS acute toxicity set (Mansouri et al. 2021).
Values joined by “and” are separate entries in the source; they are usually repeats but may differ in a detail not shown here. Equal entries are not always repeated.

assay: rat acute oral toxicity; details: in vivo
Description: […]The data set underlying the modeling effort for this project was initially compiled by NICEATM and U.S. EPA’s CCTE. Briefly, LD50 data were collected from rat acute oral systemic toxicity tests, including limit tests, ranges/confidence intervals, and discrete LD50 values. The full data set included 21,200 LD50 entries for 15,688 substances. […] Data were reviewed to ensure that LD50 values with obvious errors in the extracted data such as unit conversion errors (e.g., comma and decimal separator misplacements) were either fixed or removed. After this review, 16,209 LD50 values remained. Many of the chemicals represented had multiple LD50 entries, requiring that a single representative value per Chemical Abstracts Service Registry Number (CASRN) identifier be defined to facilitate modeling efforts. Based on ATWG feedback and to define the representative LD50 as a protective value while accounting for the distribution across multiple LD50s, the median of the lowest quartile was computed using only discrete LD50 values (omitting limit test data and range and confidence interval data). A detailed summary of the data compilation is available online on the NICEATM webpage dedicated to the collaborative modeling project (NTP 2020).
[…][…] For categorical designations, limit test and range/confidence interval LD50 data were integrated wherever possible. As such, the number of chemicals with end point values/calls varies across the modeling end points (Table 3) based on whether chemicals had representative LD50 values and/or other data. If a chemical had both, the representative value was used to determine categorical calls rather than limit test data. Some data were useable only for certain end points and categories depending on the thresholds. For example, ranges that spanned multiple hazard categories were considered only for the binary (very toxic/nontoxic) end points and omitted from rendering a determination for hazard category assignment.
[…]The final data set comprising 11,992 chemicals was split into training and evaluation sets […], respectively. This process was performed semirandomly by ordering chemicals based on the five end points (categorical and continuous LD50 values) and partitioning every fourth record into the evaluation set accordingly. This approach was taken to ensure an equivalent distribution of the LD50 values and the different hazard categories between the training and the evaluation sets without supervised sampling of the chemicals based on structures (Figure 1A). The sources of the chemical structures were also kept equivalent between the two sets, with chemical structures obtained from DSSTox, being the highest quality, representing over 75% of each set (Figure 1B).

Row | Compound | LD50
1 | CNCCC=C1c2ccccc2CCc2ccccc21 | 502 mg/kg and 405 mg/kg
2 | CS(=O)c1ccc(Cl)cc1 (stereo not given) | 463 mg/kg
3 | O=[N+]([O-])c1cc(Br)c2nc(C(F)(F)F)[nH]c2c1 | 14.5 mg/kg
4 | O=[N+]([O-])c1cncn1CCN1CCOCC1 | 1540 mg/kg
5 | CC(C)CCCC(C)N (stereo not given) | 538 mg/kg
6 | O=C1C(Cl)=C(NC(=O)C(Cl)Cl)C(=O)c2ccccc21 | 11700 mg/kg
7 | COc1cc2c(cc1OC)C(c1ccc(N)cc1)=NN=C(C)C2 | 128 mg/kg
8 | Cc1cc(Cl)ccc1/N=C/N(C)C | 225 mg/kg
9 | CC(=O)CCc1ccc(-c2ccccc2)cc1 | 1030 mg/kg
10 | CCC(=O)OCCc1ccccc1 | 4000 mg/kg
11 | CCCCCC1=C(C)CCC1=O | 2500 mg/kg
12 | O=C(Nc1nnc(CCN2c3ccccc3Sc3ccccc32)s1)c1ccccc1 | 3220 mg/kg
13 | Cn1c(=O)c2c(ncn2CCCCN2CCN(c3ccc(Cl)cc3)CC2)n(C)c1=O | 505 mg/kg
14 | CNC(=O)Oc1ccccc1C(C)C | 450 mg/kg
15 | CCCCCCCCCCCOC(=O)Cc1ccc(N(CCCl)CCCl)cc1 | 50 mg/kg
16 | CCOC(=O)NCCOc1ccc(Oc2ccccc2)cc1 | 16800 mg/kg
17 | CC(C)c1ccc(-c2ccccc2)cc1 | 8500 mg/kg
18 | O=C1CCC(c2ccc(-n3ccnc3)cc2)=NN1 | 125 mg/kg
19 | CC(C)OP(=S)(CCl)Sc1ccc(Cl)cc1 (stereo not given) | 26 mg/kg
20 | O=C(O)CCCNS(=O)(=O)c1cccc(C(F)(F)F)c1 | 13000 mg/kg
21 | CC1=CCC2C(C1)C2(C)C (stereo not given) | 4800 mg/kg
22 | COc1cc(C(C)=O)ccc1OCCCCN1CCN(c2ccccc2)CC1 | 573 mg/kg

Row | Compound | LD50
23 | COC(=O)Cc1cccc2ccccc12 | 1900 mg/kg
24 | CCCCC(=O)c1ccc(N)cc1 | 84 mg/kg
25 | CN(N=O)c1ccc(N=O)cc1 | 1370 mg/kg
26 | CCOC1CC(C)C=CO1 (stereo not given) | 3400 mg/kg
27 | OC(CCN1CCCCC1)(c1ccccc1)C1CCCCC1 (stereo not given) | 1630 mg/kg
28 | CC(=O)OC1CCCCC1C(C)(C)C (stereo not given) | 4600 mg/kg
29 | C1CNCCN1 | 4900 mg/kg
30 | O=S(=O)(O)C(F)(F)F | 1610 mg/kg
31 | CCOP(=S)(OCC)SC(C#N)c1ccccc1 (stereo not given) | 100 mg/kg
32 | CN1CCN(C2=Cc3ccccc3Oc3ccc(Cl)cc32)CC1 | 231 mg/kg
33 | CN1CCN(CC/C=C2/c3ccccc3Sc3ccc(S(=O)(=O)N(C)C)cc32)CC1 | 410 mg/kg
34 | C1CCCC1 | 11400 mg/kg
35 | COc1ccccc1NC(=O)C(N=Nc1ccc(-c2ccc(N=NC(C(C)=O)C(=O)Nc3ccccc3OC)c(Cl)c2)cc1Cl)C(C)=O (stereo not given) | 2230 mg/kg
36 | COC(=O)c1cccc(N=NN(C)C)c1 | 60 mg/kg
37 | CCNC(C)Cc1cccc(C(F)(F)F)c1 (stereo not given) | 130 mg/kg
38 | C=CCC1(C(C)CCC)C(=O)N=C(O)NC1=O (stereo not given) | 125 mg/kg
39 | O=C=Nc1ccccc1C(F)(F)F | 7000 mg/kg
40 | C=CCOC(=O)Nc1ccc(NCc2ccc(F)cc2)nc1N | 1030 mg/kg
41 | O=C1CCc2cc(C=CCN3CCN(c4ccc(Cl)cc4)CC3)ccc2N1 | 500 mg/kg
42 | CN(C)CCN(Cc1cccs1)c1ccccn1 | 200 mg/kg
43 | COc1cc2ccc(=O)oc2cc1O | 3800 mg/kg
44 | C[Si](Cn1cncn1)(c1ccc(F)cc1)c1ccc(F)cc1 | 674 mg/kg

Row | Compound | LD50
45 | CC(=O)c1ccc(C(O)C(CO)NC(=O)C(Cl)Cl)cc1 (stereo not given) | 1100 mg/kg
46 | Cc1cc(C=Cc2ccc3cc(N(C)C)ccc3[n+]2C)c(C)n1-c1ccccc1 | 161 mg/kg
47 | CC1(C)OCC(CCl)O1 (stereo not given) | 115 mg/kg
48 | CCC(C(=O)c1ccc2[nH]c(=O)ccc2c1)N1CCN(c2cccc(Cl)c2)CC1 (stereo not given) | 500 mg/kg
49 | CSCc1cnccn1 | 2150 mg/kg
50 | c1ccc2[nH]c(-c3cscn3)nc2c1 | 3600 mg/kg and 3100 mg/kg
51 | CC(C)=CC1C(C(=O)OC(C#N)c2cccc(Oc3ccccc3)c2)C1(C)C (stereo not given) | 318 mg/kg
52 | O=C1CCOc2ccccc21 | 2650 mg/kg
53 | CCn1cc(C(=O)O)c(=O)c2cc3c(cc21)OCO3 | 525 mg/kg
54 | CCC(=O)OCc1ccc(OC)cc1 | 3330 mg/kg
55 | Cc1c(Cl)c(Cl)c(Cl)c(C(Cl)Cl)c1Cl | 2920 mg/kg
56 | FC(F)(F)c1cccc(Nc2ccccc2-c2nn[nH]n2)c1 | 455 mg/kg
57 | CC1=NN(C(=N)N=C(N)N)C(C)(C)C1 | 4090 mg/kg
58 | Fc1ccc2nc(C(F)(F)F)[nH]c2c1 | 16.6 mg/kg
59 | CCCCOC(C)COC(=O)COc1cc(Cl)c(Cl)cc1Cl (stereo not given) | 500 mg/kg
60 | CC(C)NNCS(=O)(=O)O | 330 mg/kg
61 | CN(C)C(=O)CCNc1ccc(Br)cc1 | 1810 mg/kg
62 | CN(C)N=O | 37 mg/kg
63 | Cc1cnc(C)c(C)n1 | 806 mg/kg
64 | NCCN1CCNCC1 | 2140 mg/kg
65 | C=CCC#N | 115 mg/kg
